Like-named read-outs stand apart in the source and are kept apart here. *1 amine or outer side, *2 acyl side, *3 side chain or, on linkers, in order; H or OH if unused. Where a SMILES comes first, the peptide text is derived from it. Bridges are numbered along the chain shown (N, C = ends). [ ]: non-standard residue; d: D form. The star is where a group is joined. X124 = CC(C)C(=O)N1[C@@H]2CC[C@H]1C=C(c1ccc(F)cc1C[C@@H](C(=O)[*:2])N(C)[*:1])C2; X42 = CN([C@@H](Cc1cc(Cl)ccc1-c1cnn(S(=O)(=O)C2CC2)c1)C(=O)[*:2])[*:1]; X120 = CN([C@@H](Cc1cc(Cl)ccc1-c1ccn(S(C)(=O)=O)c1)C(=O)[*:2])[*:1]; X136 = CN1CCOc2cc(-c3ccc(Cl)cc3C[C@@H](C(=O)[*:2])N(C)[*:1])ccc21; X195 = CC(=O)Nc1ccc(-c2ccc(Cl)cc2C[C@@H](C(=O)[*:2])N(C)[*:1])cn1; NMehhhLys(Me) = CN([C@@H](CCCCCCCN(C)[*:3])C(=O)[*:2])[*:1]; X180 = CN([C@@H](Cc1cc(F)ccc1-c1cnn2c1CCC2)C(=O)[*:2])[*:1]; X135 = CN([C@@H](Cc1cc(Cl)ccc1-c1cn(C)cn1)C(=O)[*:2])[*:1]; X22 = CN([C@@H](Cc1cc(Cl)ccc1-c1cnn(C)c1)C(=O)[*:2])[*:1]; NMe(hhhLys) = CN([C@@H](CCCCCCCN[*:3])C(=O)[*:2])[*:1]; NMe3Pal(2-OMe,5-Cl) = CN[C@@H](Cc1cc(Cl)cnc1OC)C(=O)O; cBuCO(3,3-F2-1-CF3) = O=C(C1(C(F)(F)F)CC(F)(F)C1)*; X173 = CN([C@@H](Cc1cc(Cl)cs1)C(=O)[*:2])[*:1]; Pro(trans-4-F) = O=C(O)[C@@H]1C[C@@H](F)CN1; Pivaloyl(3,3,3-F3) = CC(C)(C(=O)*)C(F)(F)F; Gly(cPr) = N[C@H](C(=O)O)C1CC1
Experiments:
[1] = biological target: T1, CyclinA2/CDK2 (Homo sapiens, UniProt P20248); assay: Fluorescence Polarization (FP) competitive binding assay, Cyclin A2/Cdk2;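 note: plates equilibrated two hours at room temperature before polarization reading, IC50 fitted from eight-concentration compound titration curves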
T1 construct: purchased CRELUX Protein Services

[2] = biological target: T2, CyclinB1/CDK1 (Homo sapiens, UniProt P14635); assay: Fluorescence Polarization (FP) competitive binding assay, Cyclin B1/Cdk1;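 note: fluorescence polarization read after equilibration at room temperature, with IC50 taken from serially diluted dose-response curves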
T2 construct: purchased Eurofins, discovery 14-450

[3] = biological target: T3, CyclinE1/CDK2 (Homo sapiens, UniProt P24864); assay: Fluorescence Polarization (FP) competitive binding assay, Cyclin E1/Cdk2;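 note: readings taken after two-hour equilibration at room temperature in HEPES buffer with NaCl, DTT, NP-40 and BSA, IC50 fitted from eight-concentration serial dilution series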
T3 construct: purchased Eurofins, discovery 14-475

[4] = system: NCI-H1048 cells; assay: MTT proliferation assay, NCI-H1048; type: cell-based; conditions: 5 days compound exposure, 1:3 serial dilution starting at 10 μM;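 note: Dose-response in 96-well plates over 8 or 10 concentration points, with exposure spanning 3-4 cell doublings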
[5] = system: OVCAR3 cells; assay: MTT proliferation assay, OVCAR3; type: cell-based; conditions: 5 days compound exposure, 1:3 serial dilution starting at 10 μM;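 note: compound given as an 8- or 10-point series, one day after plating, with exposure covering roughly 3-4 cell doublings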
[6] = 8 nM Cyclin A2/Cdk2, 2 nM FAM probe, average of 2-3 independent experiments, read-out: Cyclin A FP IC50
[7] = 10 nM Cyclin B1/Cdk1, 2 nM FAM probe; average of 2-3 independent experiments; read-out: Cyclin B FP IC50
[8] = 10 nM Cyclin E1/Cdk2, 2 nM FAM probe, average of 2-3 independent experiments, read-out: Cyclin E FP IC50

| Structure (SMILES) | IC50 [1, 6] [nM] | IC50 [2, 7] [nM] | IC50 [3, 8] [nM] | GI50 [4] [nM] | GI50 [5] [nM] | IC50 [1] [nM] | IC50 ([2]; read-out: Cyclin B FP IC50; 10 nM Cyclin B1/Cdk1, 2 nM FAM probe; average of 2-3 independent experiments) [nM] | IC50 [3] [nM] |
| --- | --- | --- | --- | --- | --- | --- | --- | --- |
| CC(C)C[C@@H]1NC(=O)[C@@H](N(C)C(=O)[C@@H](NC(=O)[C@@H]2C[C@@H](F)CN2C(=O)C2(C(F)(F)F)CC(F)(F)C2)C2CC2)CCCCCCCN(C)C(=O)[C@H](Cc2cc(Cl)ccc2-c2ccn(S(C)(=O)=O)c2)N(C)C1=O [Example 307] ({cBuCO(3,3-F2-1-CF3)}-[Pro(trans-4-F)][Gly(cPr)][NMehhhLys(Me)]L[X120]; lactam 3-C) | 20 | 20 | 440 | 10 | 10 | – | – | – |
| CC(C)C[C@@H]1NC(=O)[C@@H](N(C)C(=O)[C@@H](NC(=O)[C@@H]2C[C@@H](F)CN2C(=O)C2(C(F)(F)F)CCC2)C2CC2)CC=CCCCCN(C)C(=O)[C@H](Cc2cc(F)cnc2OC2CC2)N(C)C1=O [Example 133] | 470 | 20 | 340 | 340 | 260 | – | – | – |
| CC(C)C[C@@H]1NC(=O)[C@@H](N(C)C(=O)[C@@H](NC(=O)[C@@H]2C[C@@H](F)CN2C(=O)C2(C(F)(F)F)CC(F)(F)C2)C2CC2)CC=CCCCCN(C)C(=O)[C@H](Cc2cc(Cl)cnc2OC2CC2)N(C)C1=O [Example 104] | 160 | 20 | 490 | 160 | 260 | – | – | – |
| CC(=O)Nc1ccc(-c2ccc(Cl)cc2C[C@H]2C(=O)N(C)CCCCCCC[C@H](N(C)C(=O)[C@@H](NC(=O)[C@@H]3C[C@@H](F)CN3C(=O)C3(C(F)(F)F)CC(F)(F)C3)C3CC3)C(=O)N[C@@H](CC(C)C)C(=O)N2C)cn1 [Example 265] ({cBuCO(3,3-F2-1-CF3)}-[Pro(trans-4-F)][Gly(cPr)][NMehhhLys(Me)]L[X195]; lactam 3-C) | 20 | 20 | 640 | 10 | 20 | – | – | – |
| CC(C)C[C@@H]1NC(=O)[C@@H](N(C)C(=O)[C@@H](NC(=O)[C@@H]2C[C@@H](F)CN2C(=O)C2(C(F)(F)F)CC(F)(F)C2)C2CC2)CCCCCCCN(C)C(=O)[C@H](Cc2cc(Cl)cs2)N(C)C1=O [Example 426] ({cBuCO(3,3-F2-1-CF3)}-[Pro(trans-4-F)][Gly(cPr)][NMehhhLys(Me)]L[X173]; lactam 3-C) | 110 | 20 | 2060 | 90 | 150 | – | – | – |
| CC(C)C[C@@H]1NC(=O)[C@@H](N(C)C(=O)[C@@H](NC(=O)[C@@H]2C[C@@H](F)CN2C(=O)C2(C(F)(F)F)CC(F)(F)C2)C2CC2)CCCCCCCNC(=O)[C@H](Cc2cc(F)ccc2C2=C[C@@H]3CC[C@H](C2)N3C(=O)C(C)C)N(C)C1=O [Example 315] ({cBuCO(3,3-F2-1-CF3)}-[Pro(trans-4-F)][Gly(cPr)][NMe(hhhLys)]L[X124]; lactam 3-C) | 30 | 20 | 420 | 20 | 20 | – | – | – |
| COc1ncc(Cl)cc1C[C@H]1C(=O)N(C)CCCCCCC[C@H](N(C)C(=O)[C@@H](NC(=O)[C@@H]2C[C@@H](F)CN2C(=O)C(C)(C)C(F)(F)F)C2CC2)C(=O)N[C@@H](CC(C)C)C(=O)N1C [Example 268] ({Pivaloyl(3,3,3-F3)}-[Pro(trans-4-F)][Gly(cPr)][NMehhhLys(Me)]L[NMe3Pal(2-OMe,5-Cl)]; lactam 3-C) | 60 | 20 | 100 | 20 | 10 | – | – | – |
| CC(C)C[C@@H]1NC(=O)[C@@H](N(C)C(=O)[C@@H](NC(=O)[C@@H]2C[C@@H](F)CN2C(=O)C2(C(F)(F)F)CC(F)(F)C2)C2CC2)CCCCCCCN(C)C(=O)[C@H](Cc2cc(F)ccc2-c2cnn3c2CCC3)N(C)C1=O [Example 148] ({cBuCO(3,3-F2-1-CF3)}-[Pro(trans-4-F)][Gly(cPr)][NMehhhLys(Me)]L[X180]; lactam 3-C) | 30 | 20 | 310 | 10 | 10 | – | – | – |
| Cc1nnc(-c2ccc(Cl)cc2C[C@H]2C(=O)NCCCCC=CC[C@H](N(C)C(=O)[C@@H](NC(=O)[C@@H]3C[C@@H](F)CN3C(=O)C3(C(F)(F)F)CC(F)(F)C3)C3CC3)C(=O)N[C@@H](CC(C)C)C(=O)N2C)o1 (single isomer, unassigned) [Example 118-P2] | 60 | 20 | 300 | 50 | 50 | – | – | – |
| CC(C)C[C@@H]1NC(=O)[C@@H](N(C)C(=O)[C@@H](NC(=O)[C@@H]2C[C@@H](F)CN2C(=O)C2(C(F)(F)F)CC(F)(F)C2)C2CC2)CCC=CCCCNC(=O)[C@H](Cc2cc(Cl)ccc2-c2cnn(S(C)(=O)=O)c2)N(C)C1=O [Example 273, (2S,4R)—N—((S)-2-(((3S,6S,9S)-3-(5-chloro-2-(1-(methylsulfonyl)-1H-pyrazol-4-yl)benzyl)-6-isobutyl-4-methyl-2,5,8-trioxo-1,4,7-triazacyclohexadec-12-en-9-yl)(methyl)amino)-1-cyclopropyl-2-oxoethyl)-1-(3,3-difluoro-1-(trifluoromethyl)cyclobutane-1-carbonyl)-4-fluoropyrrolidine-2-carboxamide] | 50 | 20 | 1940 | 30 | 40 | – | – | – |
| CC(C)C[C@@H]1NC(=O)[C@@H](N(C)C(=O)[C@@H](NC(=O)[C@@H]2C[C@@H](F)CN2C(=O)C2(C(F)(F)F)CCC2)C2CC2)CC=CCCCCNC(=O)[C@H](Cc2cc(Cl)ccc2Oc2ncccn2)N(C)C1=O (single isomer, unassigned) [Example 156-P2] | 350 | 20 | 240 | 90 | 100 | – | – | – |
| CC(C)C[C@@H]1NC(=O)[C@@H](N(C)C(=O)[C@@H](NC(=O)[C@@H]2C[C@@H](F)CN2C(=O)C2(C(F)(F)F)CC(F)(F)C2)C2CC2)CC=CCCCCNC(=O)[C@H](Cc2cc(Cl)ccc2C2=CC[C@H](O)CC2)N(C)C1=O [Example 24] | 60 | 20 | 1600 | 90 | 170 | – | – | – |
| CC(C)C[C@@H]1NC(=O)[C@@H](N(C)C(=O)[C@@H](NC(=O)[C@@H]2C[C@@H](F)CN2C(=O)C2(C(F)(F)F)CC(F)(F)C2)C2CC2)CCCCCCCNC(=O)[C@H](Cc2cc(Cl)ccc2-c2cnn(S(=O)(=O)C3CC3)c2)N(C)C1=O [Example 300] ({cBuCO(3,3-F2-1-CF3)}-[Pro(trans-4-F)][Gly(cPr)][NMe(hhhLys)]L[X42]; lactam 3-C) | 30 | 20 | 680 | 30 | 40 | – | – | – |
| CC(C)C[C@@H]1NC(=O)[C@@H](N(C)C(=O)[C@@H](NC(=O)[C@@H]2C[C@@H](F)CN2C(=O)C2(C(F)(F)F)CC(F)(F)C2)C2CC2)CCCCCCCN(C)C(=O)[C@H](Cc2cc(Cl)ccc2-c2cn(C)cn2)N(C)C1=O [Example 242] ({cBuCO(3,3-F2-1-CF3)}-[Pro(trans-4-F)][Gly(cPr)][NMehhhLys(Me)]L[X135]; lactam 3-C) | – | – | – | 30 | 20 | 30 | 20 | 700 |
| CC(C)C[C@@H]1NC(=O)[C@@H](N(C)C(=O)[C@@H](NC(=O)[C@@H]2C[C@@H](F)CN2C(=O)C2(C(F)(F)F)CC(F)(F)C2)C2CC2)C/C=C\CCCCN(C)C(=O)[C@H](Cc2cc(F)ccc2-c2cnn(S(C)(=O)=O)c2)N(C)C1=O [Example 278] | 70 | 20 | 280 | 10 | 10 | – | – | – |
| CC(C)C[C@@H]1NC(=O)[C@@H](N(C)C(=O)[C@@H](NC(=O)[C@@H]2C[C@@H](F)CN2C(=O)C2(C(F)(F)F)CC(F)(F)C2)C2CC2)CCCC=CCCNC(=O)[C@H](Cc2cc(Cl)ccc2-c2cnn(C3CC3)c2)N(C)C1=O [Example 287] | 60 | 20 | 1940 | 40 | 40 | – | – | – |
| CC(C)C[C@@H]1NC(=O)[C@@H](N(C)C(=O)[C@@H](NC(=O)[C@@H]2C[C@@H](F)CN2C(=O)C2(C(F)(F)F)CC(F)(F)C2)C2CC2)CCCCCCCN(C)C(=O)[C@H](Cc2cc(Cl)ccc2-c2ccc3c(c2)OCCN3C)N(C)C1=O [Example 342] ({cBuCO(3,3-F2-1-CF3)}-[Pro(trans-4-F)][Gly(cPr)][NMehhhLys(Me)]L[X136]; lactam 3-C) | 20 | 20 | 590 | 10 | 10 | – | – | – |
| CC(C)C[C@@H]1NC(=O)[C@@H](NC(=O)[C@@H](NC(=O)[C@@H]2C[C@@H](F)CN2C(=O)C2(C(F)(F)F)CC2)C2CC2)CC=CCCCCN(C)C(=O)[C@H](Cc2cc(Cl)ccc2Cl)N(C)C1=O [Example 11] | 170 | 20 | 100 | 80 | 210 | – | – | – |
| CC(C)C[C@@H]1NC(=O)[C@@H](N(C)C(=O)[C@@H](NC(=O)[C@@H]2CCCN2C(=O)C2(C(F)(F)F)CC(F)(F)C2)C2CC2)CCCCCCCN(C)C(=O)[C@H](Cc2cc(Cl)ccc2-c2cnn(C)c2)N(C)C1=O [Example 77] ({cBuCO(3,3-F2-1-CF3)}-P[Gly(cPr)][NMehhhLys(Me)]L[X22]; lactam 3-C) | 20 | 20 | 1710 | 60 | 70 | – | – | – |
